Results from paper PMC4942781, “A sodium channel inhibitor ISTX-I with a novel structure provides a new hint at the evolutionary link between two toxin folds” (Scientific Reports, 2016).
Bridge positions count the residues as written; N and C are the ends. Ends that are not written are not given here.

System: hNav1.8
Assay: Whole-cell patch clamp, hNav1.8 in HEK293 cells
Type: cell-based, human
Details: legend of Figure S3; concentration not given; 50 ms step to -10 mV, held at -80 mV
Protocol: Electrophysiological studies.
Currents were recorded from experimental cells using whole-cell patch clamptechnique at room temperature (22–25 °C). The patch pipettes were fabricated from borosilicate glass tubing using a two-stage vertical microelectrode puller (PC-10, Narishige, Japan). After establishing the whole-cell recording configuration, the resting potential was held at −80 mV for at least 5 min to allow adequate equilibration between the micropipette solution and the cell interior. The micropipette solution of sodium currents for dorsal root ganglion neurons contained (in mM): 105 CsF, 35 NaCl, 10 HEPES, 10 EGTA (pH 7.4). The external solution contained (in mM): 50 NaCl, 100 TEA.Cl, 2 KCl, 1.5 CaCl2, 10 HEPES, 1 MgCl2, and 5 glucose (pH 7.4). K+ currents were recorded using an internal solution containing the followings (in mM): KCl 140, MgCl2 2.5, HEPES 10, and EGTA 11 (pH 7.2). The external bathing solution contained the followings (in mM): NaCl 150, KCl 5, CaCl2 25, MgCl2 12, HEPES 10, and D-glucose 10 (pH 7.2). Calcium channel currents were measured using Ba2+ as the charge carrier. The external solution contained (in mM): 160 TEA-Cl, 10 HEPES, 2 BaCl2, 10 glucoses, adjusted to pH 7.4 with TEA-OH. […]
Figure S1. […] The absorbance of the elution was monitored at 280 nm. […]

LCSENGDCAADECCVDTVFEGDMVTRSCEKTTGNFTECPGLTPIA (disulfide 2-14, 8-28, 13-38) [ISTX-I]
effect on hNav1.8: No effect
